# Data as given in patent US8877754B2, “Compounds, pharmaceutical compositions and uses thereof” (Boehringer Ingelheim International GmbH, priority 2010, dated 2014).
# pIC50: −log10 of the molar value.
# Target: T1, human ACC2 (Homo sapiens, UniProt O00763)
# T1 construct: made in house; host or cells: insect cells, baculoviral expression system
# Experiment: ACC2 assay, spectrophotometric 384 well assay (NADH-linked, coupled lactate dehydrogenase/pyruvate kinase)
# Format: biochemical
# Details: hACC2 construct lacking the 128 N-terminal amino acids; 25° C., 340 nm, 15 minutes
# Experimental: Spectrophotometric 384 Well Assay
# Malonyl CoA formation by acetyl CoA carboxylases is stoichometrically linked to the consumption of ATP. ACC2 activity is measured in a NADH-linked kinetic method measuring ADP generated during the ACC reaction using a coupled lactate dehydrogenase/pyruvate kinase reaction.
# For biological testing, a human ACC2 construct which lacks the 128 amino acids at the N-terminus for increased solubility (nt 385-6966 in Genbank entry AJ575592) is cloned. The protein is then expressed in insect cells using a baculoviral expression system. Protein purification is performed by anion exchange.
# All compounds are dissolved in dimethyl sulfoxide (DMSO) to a concentration of 10 mM.
# Assay reactions are then carried out in 384-well plates, with hACC2 in an appropriate dilution and at final assay concentrations (f.c.) of 100 mM Tris (pH 7.5), 10 mM trisodium citrate, 25 mM KHCO3, 10 mM MgCl2, 0.5 mg/mL BSA, 3.75 mM reduced L-glutathione, 15 U/mL lactate dehydrogenase, 0.5 mM phosphoenolpyruvate, 15 U/mL pyruvate kinase, compounds at different concentrations at final DMSO concentrations of 1%.
# The enzymatic reaction is then started by addition of a mixture of NADH, acetyl Coenzyme A (both 200 μM f.c.) and ATP (500 uM f.c.). The decrease of the optical density (slope S) is then determined at 25° C. at a wavelength of 340 nm over 15 minutes in a spectrophotometric reader.
# Each assay microtiter plate contains wells with vehicle instead of compound as controls for the non-inhibited enzyme (100% CTL; ‘HIGH’) and wells without acetyl-CoA as controls for non-specific NADH degradation (0% CTL; ‘LOW’). The slope S is used for calculation of % CTL=(S(compound)−S(‘LOW’))/(S(‘HIGH’)—S(‘LOW’))*100. Compounds will give values between 100% CTL (no inhibition) and 0% CTL (complete inhibition).
# For IC50 value determination, the sample slope in the presence of the test compound after subtraction of the low controls (S(compound)−S(‘LOW’)) are used.
# An IC50 value is derived from the compound slopes at different dosages after subtraction of the low controls (S(compound)−S(‘LOW’)) by non-linear regression curve fitting (equation y=(A+((B−A)/(1+((C/x)^D))))).
# T1 sequence (O00763 129-2458 limits assumed): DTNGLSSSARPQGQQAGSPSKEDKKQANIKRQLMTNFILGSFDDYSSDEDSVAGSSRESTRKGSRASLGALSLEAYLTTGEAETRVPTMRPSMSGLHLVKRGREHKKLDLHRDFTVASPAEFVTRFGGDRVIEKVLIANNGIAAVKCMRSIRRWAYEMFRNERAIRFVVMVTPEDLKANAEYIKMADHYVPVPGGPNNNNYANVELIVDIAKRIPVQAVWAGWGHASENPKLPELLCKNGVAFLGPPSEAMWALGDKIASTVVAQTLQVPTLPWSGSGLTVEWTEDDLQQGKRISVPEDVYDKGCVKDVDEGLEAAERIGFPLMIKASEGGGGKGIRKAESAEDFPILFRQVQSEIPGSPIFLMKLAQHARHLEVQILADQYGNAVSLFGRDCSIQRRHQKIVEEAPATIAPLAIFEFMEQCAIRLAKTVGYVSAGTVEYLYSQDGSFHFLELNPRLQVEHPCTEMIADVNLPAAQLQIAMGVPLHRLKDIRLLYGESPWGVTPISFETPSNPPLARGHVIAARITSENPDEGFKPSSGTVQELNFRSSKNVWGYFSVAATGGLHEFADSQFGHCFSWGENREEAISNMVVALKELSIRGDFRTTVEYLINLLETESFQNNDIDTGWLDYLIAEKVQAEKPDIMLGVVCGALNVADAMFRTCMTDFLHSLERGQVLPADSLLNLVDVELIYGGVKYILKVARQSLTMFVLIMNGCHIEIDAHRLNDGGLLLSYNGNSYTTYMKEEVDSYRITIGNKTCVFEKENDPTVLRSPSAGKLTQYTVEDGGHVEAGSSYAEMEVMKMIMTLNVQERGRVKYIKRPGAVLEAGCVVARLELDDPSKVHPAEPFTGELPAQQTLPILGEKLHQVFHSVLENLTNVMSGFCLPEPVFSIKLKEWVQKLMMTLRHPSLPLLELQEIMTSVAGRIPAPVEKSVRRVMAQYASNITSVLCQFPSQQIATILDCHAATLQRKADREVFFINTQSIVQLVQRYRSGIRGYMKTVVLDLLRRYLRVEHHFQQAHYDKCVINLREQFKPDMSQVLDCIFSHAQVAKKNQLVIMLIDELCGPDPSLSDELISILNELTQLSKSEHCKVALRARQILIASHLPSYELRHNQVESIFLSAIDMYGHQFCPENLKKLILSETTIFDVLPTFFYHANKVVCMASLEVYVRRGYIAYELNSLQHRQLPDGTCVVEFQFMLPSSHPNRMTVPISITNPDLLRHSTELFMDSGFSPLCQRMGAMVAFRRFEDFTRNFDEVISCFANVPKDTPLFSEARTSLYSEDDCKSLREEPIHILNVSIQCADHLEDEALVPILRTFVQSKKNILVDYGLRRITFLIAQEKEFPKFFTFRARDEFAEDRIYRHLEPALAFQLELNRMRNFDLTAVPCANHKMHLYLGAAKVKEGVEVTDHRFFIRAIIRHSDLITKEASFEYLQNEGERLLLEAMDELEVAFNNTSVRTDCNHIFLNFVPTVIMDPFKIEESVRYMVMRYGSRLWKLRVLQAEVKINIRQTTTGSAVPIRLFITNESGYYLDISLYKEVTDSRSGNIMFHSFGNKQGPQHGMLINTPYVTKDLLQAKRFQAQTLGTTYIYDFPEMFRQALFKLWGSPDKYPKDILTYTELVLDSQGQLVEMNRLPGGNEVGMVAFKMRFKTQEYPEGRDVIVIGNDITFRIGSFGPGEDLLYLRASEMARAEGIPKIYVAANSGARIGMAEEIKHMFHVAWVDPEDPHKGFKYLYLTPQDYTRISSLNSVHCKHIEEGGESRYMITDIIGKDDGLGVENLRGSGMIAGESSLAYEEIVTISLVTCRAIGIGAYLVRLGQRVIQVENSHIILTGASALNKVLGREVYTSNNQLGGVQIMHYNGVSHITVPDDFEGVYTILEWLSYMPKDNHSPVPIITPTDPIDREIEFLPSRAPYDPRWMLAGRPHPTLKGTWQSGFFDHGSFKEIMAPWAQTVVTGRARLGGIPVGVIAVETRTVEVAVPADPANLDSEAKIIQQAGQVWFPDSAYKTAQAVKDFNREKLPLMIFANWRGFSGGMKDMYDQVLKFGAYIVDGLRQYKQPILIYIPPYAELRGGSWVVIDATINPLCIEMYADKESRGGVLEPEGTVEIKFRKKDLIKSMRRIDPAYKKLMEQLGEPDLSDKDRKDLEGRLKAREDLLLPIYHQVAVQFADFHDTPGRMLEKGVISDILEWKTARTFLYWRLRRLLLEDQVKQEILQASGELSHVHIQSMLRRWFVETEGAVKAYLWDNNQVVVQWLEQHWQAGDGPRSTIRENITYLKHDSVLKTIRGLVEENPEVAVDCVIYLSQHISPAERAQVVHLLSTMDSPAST
row,Compound,pIC50
1,"CCOc1ccc(C#Cc2ccc(CCC(=O)NC)cc2)cc1 [Example 1.1, 3-[4-(4-Ethoxy-phenylethynyl)-phenyl]-N-methyl-propionamide]",5.37
2,CCOc1ccc(C#Cc2ccc(C(C)C(=O)NC)cc2)cc1 (stereo not drawn) [Example 1.3],6.66
3,CCOc1ccc(C#Cc2ccc(C(C)C(=O)N(C)C)cc2)cc1 (stereo not drawn) [Example 1.4],4.79
4,CCNC(=O)C(C)c1ccc(C#Cc2ccc(OCC)cc2)cc1 (stereo not drawn) [Example 1.5],7.05
5,CCOc1ccc(C#Cc2ccc(CC(=O)NC)cc2)cc1 [Example 1.6],5.27
6,CCCOc1ccc(C#Cc2ccc(C(C)(C)C(=O)NCC)cc2)cc1 [Example 1.8],5.62
7,CCOc1ccc(C#Cc2ccc(C(C)C(N)=O)cc2)cc1 (stereo not drawn) [Example 1.9],6.66
8,CCOc1ccc(C#Cc2ccc(C(C)C(=O)NCC(N)=O)cc2)cc1 (stereo not drawn) [Example 1.10],6.28
9,CCOc1ccc(C#Cc2ccc(C(C)C(=O)NCC#N)cc2)cc1 (stereo not drawn) [Example 1.11],6.18
10,CCOc1ccc(C#Cc2ccc(C(C)C(=O)NCCOC)cc2)cc1 (stereo not drawn) [Example 1.12],5.01
11,CCOc1ccc(C#Cc2ccc(C(C)C(=O)NC(C)CC)cc2)cc1 (stereo not drawn) [Example 1.13],5.55
12,CCCOc1ccc(C#Cc2ccc(C(C)(C)C(=O)NC3CC3)cc2)cc1 [Example 1.14],6.22
13,CCOc1ccc(C#Cc2ccc(C(C)C(=O)Nc3ccccc3)cc2)cc1 (stereo not drawn) [Example 1.15],7.10
14,CCCNC(=O)C(C)c1ccc(C#Cc2ccc(OCC)cc2)cc1 (stereo not drawn) [Example 1.16],6.21
15,CCOc1ccc(C#Cc2ccc(C(C)C(=O)NC3CC3)cc2)cc1 (stereo not drawn) [Example 1.17],6.92
16,CCOc1ccc(C#Cc2ccc(C(C)C(=O)NCC(=O)OC)cc2)cc1 (stereo not drawn) [Example 1.18],5.89
17,CCCOc1ccc(C#Cc2ccc(C(C)(C)C(N)=O)cc2)cc1 [Example 1.19],4.53
18,CCOc1ccc(C#Cc2ccc(C(C)C(=O)NC(C)C)cc2)cc1 (stereo not drawn) [Example 1.20],4.88
19,CCOc1ccc(C#Cc2ccc(CC(=O)N(C)C)cc2)cc1 [Example 1.21],4.52
20,CCNC(=O)Cc1ccc(C#Cc2ccc(OCC)cc2)cc1 [Example 1.22],5.44
21,CCOc1ccc(C#Cc2ccc(CC(=O)NC3CC3)cc2)cc1 [Example 1.23],6.00
22,CCOc1ccc(C#Cc2ccc(CC(C)C(=O)NC)cc2)cc1 (stereo not drawn) [Example 1.24],5.57
23,CCOc1ccc(C#Cc2ccc(CC(C)C(=O)NC3CC3)cc2)cc1 (stereo not drawn) [Example 1.25],6.14
24,"CCNC(=O)C(C)c1ccc(C#Cc2cnc(NC(C)C)nc2)cc1 (stereo not drawn) [Example 2.1, N-Ethyl-2-[4-(2-isopropylamino-pyrimidin-5-ylethynyl)-phenyl]-propionamide]",6.16

row,Compound,pIC50
1,CCNC(=O)C(C)c1ccc(C#Cc2cnc(NC3CCCC3)nc2)cc1 (stereo not drawn) [Example 2.3],6.15
2,CCNC(=O)C(C)c1ccc(C#Cc2cnc(NC3CC3)nc2)cc1 (stereo not drawn) [Example 2.4],6.41
3,CCNC(=O)C(C)c1ccc(C#Cc2cnc(NC(C)CC)nc2)cc1 (stereo not drawn) [Example 2.6],6.39
4,CCNC(=O)C(C)c1ccc(C#Cc2cnc(N3CCC3)nc2)cc1 (stereo not drawn) [Example 2.7],5.43
5,CCNC(=O)C(C)c1ccc(C#Cc2cnc(NCCF)nc2)cc1 (stereo not drawn) [Example 2.9],5.60
6,CCNC(=O)C(C)c1ccc(C#Cc2cnc(N3CCC4(CC4)C3)nc2)cc1 (stereo not drawn) [Example 2.10],5.64
7,CCNC(=O)C(C)c1ccc(C#Cc2cnc(N3CC4CCCC4C3)nc2)cc1 (stereo not drawn) [Example 2.11],6.57
8,CCNC(=O)C(C)c1ccc(C#Cc2cnc(NC3CCC3)nc2)cc1 (stereo not drawn) [Example 2.12],6.16
9,CCNC(=O)C(C)c1ccc(C#Cc2cnc(NCc3ccccc3)nc2)cc1 (stereo not drawn) [Example 2.13],6.62
10,CCNC(=O)C(C)c1ccc(C#Cc2cnc(N(C)C3CC3)nc2)cc1 (stereo not drawn) [Example 2.14],5.17
11,CCNC(=O)C(C)c1ccc(C#Cc2cnc(N3CCCCC3)nc2)cc1 (stereo not drawn) [Example 2.15],5.82
12,CCNC(=O)C(C)c1ccc(C#Cc2cnc(NCc3ccncc3)nc2)cc1 (stereo not drawn) [Example 2.16],5.13
13,"CCNC(=O)C(C)c1ccc(C#Cc2cnc(OCCF)nc2)cc1 (stereo not drawn) [Example 3.1, N-Ethyl-2-{4-[2-(2-fluoro-ethoxy)-pyrimidin-5-ylethynyl]-phenyl}-propionamide]",5.08
14,CCNC(=O)C(C)c1ccc(C#Cc2cnc(OC3CCC3)nc2)cc1 (stereo not drawn) [Example 3.2],6.40
15,CCNC(=O)C(C)c1ccc(C#Cc2cnc(Oc3ccccc3)nc2)cc1 (stereo not drawn) [Example 3.3],6.04
16,CCNC(=O)C(C)c1ccc(C#Cc2cnc(OC(C)C)nc2)cc1 (stereo not drawn) [Example 3.4],6.34
17,"CCNC(=O)C(C)c1ccc(C#Cc2ccc(OC)cc2)cc1 (stereo not drawn) [Example 4.1, N-Ethyl-2-[4-(4-methoxy-phenylethynyl)-phenyl]-propionamide]",6.59
18,"CCNC(=O)C(C)c1ccc(C#Cc2ccc(OCc3ccco3)cc2)cc1 (stereo not drawn) [Example 5.1, N-Ethyl-2-{4-[4-(furan-2-ylmethoxy)-phenylethynyl]-phenyl}-propionamide]",5.82
19,CCNC(=O)C(C)c1ccc(C#Cc2ccc(OC3CCOCC3)cc2)cc1 (stereo not drawn) [Example 5.2],5.74
20,CCNC(=O)C(C)c1ccc(C#Cc2ccc(OCC(C)C)cc2)cc1 (stereo not drawn) [Example 5.3],6.62
21,CCNC(=O)C(C)c1ccc(C#Cc2ccc(OCCOCC)cc2)cc1 (stereo not drawn) [Example 5.4],5.96
22,CCNC(=O)C(C)c1ccc(C#Cc2ccc(OCCC3CC3)cc2)cc1 (stereo not drawn) [Example 5.5],6.70
23,CCNC(=O)C(C)c1ccc(C#Cc2ccc(OCC3CCOC3)cc2)cc1 (stereo not drawn) [Example 5.6],6.64
24,CCNC(=O)C(C)c1ccc(C#Cc2ccc(OCCn3cccc3)cc2)cc1 (stereo not drawn) [Example 5.7],6.77

row,Compound,pIC50
1,CCNC(=O)C(C)c1ccc(C#Cc2ccc(OC(C)c3ccncc3)cc2)cc1 (stereo not drawn) [Example 5.8],5.82
2,CCNC(=O)C(C)c1ccc(C#Cc2ccc(OCc3cncs3)cc2)cc1 (stereo not drawn) [Example 5.10],5.43
3,CCNC(=O)C(C)c1ccc(C#Cc2ccc(OC3CCCOC3)cc2)cc1 (stereo not drawn) [Example 5.11],6.06
4,CCNC(=O)C(C)c1ccc(C#Cc2ccc(OCCCOC)cc2)cc1 (stereo not drawn) [Example 5.12],6.36
5,CCNC(=O)C(C)c1ccc(C#Cc2ccc(OCC3CCOCC3)cc2)cc1 (stereo not drawn) [Example 5.13],6.05
6,CCNC(=O)C(C)c1ccc(C#Cc2ccc(OCCC(F)(F)F)cc2)cc1 (stereo not drawn) [Example 5.14],6.96
7,CCNC(=O)C(C)c1ccc(C#Cc2ccc(OCC3(C)COC3)cc2)cc1 (stereo not drawn) [Example 5.15],5.57
8,CCNC(=O)C(C)c1ccc(C#Cc2ccc(OC(CC)COC)cc2)cc1 (stereo not drawn) [Example 5.16],5.85
9,CCNC(=O)C(C)c1ccc(C#Cc2ccc(OCCc3cn[nH]c3)cc2)cc1 (stereo not drawn) [Example 5.17],6.03
10,CCNC(=O)C(C)c1ccc(C#Cc2ccc(OCCn3ccnc3)cc2)cc1 (stereo not drawn) [Example 5.18],5.72
11,CCNC(=O)C(C)c1ccc(C#Cc2ccc(OCC(C)F)cc2)cc1 (stereo not drawn) [Example 5.19],6.60
12,CCNC(=O)C(C)c1ccc(C#Cc2ccc(OCC3CC3(F)F)cc2)cc1 (stereo not drawn) [Example 5.20],7.05
13,CCNC(=O)C(C)c1ccc(C#Cc2ccc(OCc3cnco3)cc2)cc1 (stereo not drawn) [Example 5.21],6.27
14,"CCOc1ccc(C#Cc2ccc(C(C)C(=O)Nc3cc(C)nn3C)cc2)cc1 (stereo not drawn) [Example 6.1, N-(2,5-Dimethyl-2H-pyrazol-3-yl)-2-[4-(4-ethoxy-phenylethynyl)-phenyl]-propionamide]",6.64
15,CCOc1ccc(C#Cc2ccc(C(C)C(=O)Nc3ccncn3)cc2)cc1 (stereo not drawn) [Example 6.2],6.28
16,CCOc1ccc(C#Cc2ccc(C(C)C(=O)Nc3nnc(C)o3)cc2)cc1 (stereo not drawn) [Example 6.3],6.08
17,CCOc1ccc(C#Cc2ccc(C(C)C(=O)Nc3cccc(OC)n3)cc2)cc1 (stereo not drawn) [Example 6.4],6.39
18,CCOc1ccc(C#Cc2ccc(C(C)C(=O)Nc3cncnc3)cc2)cc1 (stereo not drawn) [Example 6.5],7.22
19,CCOc1ccc(C#Cc2ccc(C(C)C(=O)Nc3ccn[nH]3)cc2)cc1 (stereo not drawn) [Example 6.6],5.44
20,CCOc1ccc(C#Cc2ccc(C(C)C(=O)Nc3ncco3)cc2)cc1 (stereo not drawn) [Example 6.7],5.48
21,CCOc1ccc(C#Cc2ccc(C(C)C(=O)NC3COC3)cc2)cc1 (stereo not drawn) [Example 6.8],6.21
22,CCOc1ccc(C#Cc2ccc(C(C)C(=O)NC3CCOC3)cc2)cc1 (stereo not drawn) [Example 6.9],5.74
23,CCOc1ccc(C#Cc2ccc(C(C)C(=O)Nc3ccnn3C)cc2)cc1 (stereo not drawn) [Example 6.10],6.72
24,CCOc1ccc(C#Cc2ccc(C(C)C(=O)Nc3ccnn3CC)cc2)cc1 (stereo not drawn) [Example 6.11],6.08
